Earlier results in US9029598B2 (Colgate-Palmolive Company, priority 2009, dated 2015).

Settings: room temperature, natural partial pressure (3.5×10^−4 atmosphere)

O=C=O [Carbon dioxide]
maximum concentration of carbon dioxide in water: 12 µM
